For assay [1], the target named is T1, CDK12 (nuclear staining in CAL-120 cells) (Homo sapiens, UniProt Q9NYV4).
T1 construct: endogenous in cells; host or cells: CAL-120 human breast cancer cells (DSMZ ACC 459)
As to the kind of experiment: CDK12 nuclear protein level: immunofluorescence/high content analysis (CAL-120). To be noted: for DC50: CAL-120 cells, 24 h, immunofluorescence, 50% reduction of nuclear CDK12 staining intensity, median, read-out: CDK12 degradation IF, DC50- [mol/l] (median); for (IC50 CDK12 high ATP) to (Degradation DC50 CDK12) ratio: ratio of IC50 CDK12 high ATP kinase assay to DC50 CDK12 degradation (IF, CAL-120). Type of assay: cell-based. The procedure, abridged:
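CAL-120 cells were treated with compound for 24 h at 37 °C, fixed with PFA and immunostained for CDK12. Nuclear CDK12 intensity was quantified by automated image analysis and normalized to DMSO and control. DC50 is the concentration giving 50% reduction of nuclear staining.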

The target in another assay is T2, CDK2/CycE (Homo sapiens, UniProt P24941).
T2 construct: purchased ProQinase GmbH (Freiburg, Germany); host or cells: insect cells (Sf9)
As to the kind of experiment: CDK2/CycE kinase assay (TR-FRET, 2 mM ATP). Type of assay: biochemical. Conditions: 2 mM ATP (high ATP); median; read-out: CDK2/CyclinE, 2 mM ATP (high ATP), IC50 (median). The procedure, abridged:
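GST-tagged human CDK2 and CycE from Sf9 cells, about 10 ng/ml, pre-incubated 15 min at 22 °C with compound in Tris/HCl pH 8.0 buffer. Reaction with 2 mM ATP and 0.75 µM biotinylated peptide for 25 min at 22 °C. Phospho-RB antibody TR-FRET (665/620 nm ratio) read after 1 h; data normalised to no-inhibitor and no-enzyme controls.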
(In general: TR-FRET usually uses a lanthanide donor and a delayed reading to cut background.)

Structures are written as SMILES.

T1 sequence (Q9NYV4 whole entry): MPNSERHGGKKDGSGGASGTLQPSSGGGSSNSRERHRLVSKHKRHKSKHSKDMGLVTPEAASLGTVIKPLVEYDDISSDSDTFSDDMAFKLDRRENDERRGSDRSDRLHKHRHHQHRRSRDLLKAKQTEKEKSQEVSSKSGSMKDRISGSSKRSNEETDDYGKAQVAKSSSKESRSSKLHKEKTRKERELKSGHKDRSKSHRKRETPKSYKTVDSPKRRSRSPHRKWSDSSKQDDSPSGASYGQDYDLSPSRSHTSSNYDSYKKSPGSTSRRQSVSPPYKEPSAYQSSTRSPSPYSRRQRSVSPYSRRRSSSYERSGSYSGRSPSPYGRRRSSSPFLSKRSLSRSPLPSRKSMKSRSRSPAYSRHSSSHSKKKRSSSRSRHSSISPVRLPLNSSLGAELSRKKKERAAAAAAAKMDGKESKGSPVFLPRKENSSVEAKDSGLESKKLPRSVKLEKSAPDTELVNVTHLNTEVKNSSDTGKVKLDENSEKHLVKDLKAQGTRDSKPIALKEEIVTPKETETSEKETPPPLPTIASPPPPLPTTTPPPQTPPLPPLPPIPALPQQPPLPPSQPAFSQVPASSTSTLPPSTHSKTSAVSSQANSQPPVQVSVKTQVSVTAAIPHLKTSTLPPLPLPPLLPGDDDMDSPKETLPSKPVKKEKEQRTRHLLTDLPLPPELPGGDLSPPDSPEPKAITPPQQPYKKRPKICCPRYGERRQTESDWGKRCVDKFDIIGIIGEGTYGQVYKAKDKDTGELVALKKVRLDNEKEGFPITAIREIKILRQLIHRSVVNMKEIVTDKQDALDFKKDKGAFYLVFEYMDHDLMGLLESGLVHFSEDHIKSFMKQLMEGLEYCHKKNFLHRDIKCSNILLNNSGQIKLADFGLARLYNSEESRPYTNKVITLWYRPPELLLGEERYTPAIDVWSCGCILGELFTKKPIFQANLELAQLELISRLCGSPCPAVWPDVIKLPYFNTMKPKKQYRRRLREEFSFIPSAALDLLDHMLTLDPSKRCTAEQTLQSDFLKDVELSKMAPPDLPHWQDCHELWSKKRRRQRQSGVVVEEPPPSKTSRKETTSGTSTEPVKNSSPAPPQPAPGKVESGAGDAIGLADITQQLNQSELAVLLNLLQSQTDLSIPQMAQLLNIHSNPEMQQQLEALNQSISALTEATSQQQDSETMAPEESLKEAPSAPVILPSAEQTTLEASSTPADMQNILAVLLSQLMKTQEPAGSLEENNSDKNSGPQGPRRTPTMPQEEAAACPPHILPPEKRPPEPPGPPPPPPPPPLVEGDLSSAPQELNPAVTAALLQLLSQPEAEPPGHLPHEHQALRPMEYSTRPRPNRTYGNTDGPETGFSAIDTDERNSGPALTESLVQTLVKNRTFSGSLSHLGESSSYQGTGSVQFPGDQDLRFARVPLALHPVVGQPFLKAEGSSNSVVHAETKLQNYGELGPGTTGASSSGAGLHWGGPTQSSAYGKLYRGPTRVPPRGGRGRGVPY
T1 sequence (O75909 whole entry partner): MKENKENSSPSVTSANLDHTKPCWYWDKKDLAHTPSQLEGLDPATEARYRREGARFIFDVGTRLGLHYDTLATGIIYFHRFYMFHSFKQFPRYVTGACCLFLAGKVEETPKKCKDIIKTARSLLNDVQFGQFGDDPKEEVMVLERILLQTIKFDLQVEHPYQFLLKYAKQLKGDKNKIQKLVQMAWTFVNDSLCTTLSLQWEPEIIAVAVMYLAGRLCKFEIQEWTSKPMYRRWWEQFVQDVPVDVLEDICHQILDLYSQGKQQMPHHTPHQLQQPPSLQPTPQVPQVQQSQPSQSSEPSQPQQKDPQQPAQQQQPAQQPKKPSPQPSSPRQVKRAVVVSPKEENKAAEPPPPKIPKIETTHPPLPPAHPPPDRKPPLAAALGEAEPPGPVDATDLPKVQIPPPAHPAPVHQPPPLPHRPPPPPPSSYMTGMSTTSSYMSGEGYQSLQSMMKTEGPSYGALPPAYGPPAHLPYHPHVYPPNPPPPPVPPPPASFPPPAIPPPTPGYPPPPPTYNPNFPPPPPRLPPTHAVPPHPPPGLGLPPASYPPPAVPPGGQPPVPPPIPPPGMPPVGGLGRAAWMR

On to `CN1CCN(c2nc(NCc3nc4c(F)cccc4[nH]3)n3ncc(Cl)c3n2)CC1.O=CO` [Example 362, formic acid 8-chloro-N-[(4-fluoro-1H-benzimidazol-2-yl)methyl]-2-(4-methylpiperazin-1-yl)pyrazolo[1,5-a][1,3,5]triazin-4-amine], for which, in assay [1], the DC50 was 7.85 nM and the “(IC50 CDK12 high ATP) to (Degradation DC50 CDK12) ratio” value came out at 1673. In addition, the IC50 on CDK2/CycE worked out at 9310 nM.

For `Fc1cc2nc(CNc3nc(N4CCOCC4)nc4c(C(F)(F)F)cnn34)[nH]c2cc1F` [Example 333, N-[(5,6-difluoro-1H-benzimidazol-2-yl)methyl]-2-(morpholin-4-yl)-8-(trifluoromethyl)pyrazolo[1,5-a][1,3,5]triazin-4-amine], in assay [1], the DC50 was 2.31 nM and the “(IC50 CDK12 high ATP) to (Degradation DC50 CDK12) ratio” value turned out to be 61. Further, the IC50 on CDK2/CycE is greater than 20000 nM.

In the case of `Brc1cnn2c(NCc3nc4ccccc4[nH]3)nc(N3C[C@H]4CC[C@@H]3CO4)nc12` (single isomer, unassigned) [Example 383, N-[(1H-benzimidazol-2-yl)methyl]-8-bromo-2-{[1R or S-(1R*,4R*)]-2-oxa-5-azabicyclo[2.2.2]octan-5-yl}pyrazolo[1,5-a][1,3,5]triazin-4-amine], in assay [1], the DC50 amounted to 5.79 nM and the “(IC50 CDK12 high ATP) to (Degradation DC50 CDK12) ratio” value was determined as 859. Further, the IC50 on CDK2/CycE was 3950 nM.

Turning to `Fc1ccc(-c2nnc(CNc3nc(N4CCOCC4)nc4c(Br)cnn34)[nH]2)cc1` [Example 29, 8-bromo-N-{[5-(4-fluorophenyl)-4H-1,2,4-triazol-3-yl]methyl}-2-(morpholin-4-yl)pyrazolo[1,5-a][1,3,5]triazin-4-amine], in assay [1], the DC50 was found to be 11.8 nM and the “(IC50 CDK12 high ATP) to (Degradation DC50 CDK12) ratio” value is 310. For the same molecule, the IC50 at CDK2/CycE amounted to 3080 nM.

For the molecule `CN(CC(C)(C)O)c1nc(NCc2nc3cc(OC(F)(F)F)ccc3[nH]2)n2ncc(Br)c2n1` [Example 378, 1-{[8-bromo-4-({[5-(trifluoromethoxy)-1H-benzimidazol-2-yl]methyl}amino)pyrazolo[1,5-a][1,3,5]triazin-2-yl](methyl)amino}-2-methylpropan-2-ol], in assay [1], the DC50 was determined as 29.1 nM and the “(IC50 CDK12 high ATP) to (Degradation DC50 CDK12) ratio” value amounted to 15. For the same molecule, the IC50 at CDK2/CycE was found to be 8110 nM.

Regarding `CN(CC(C)(C)O)c1nc(NCc2nc3cc(F)c(F)cc3[nH]2)n2ncc(C3CC3)c2n1` [Example 319, 1-[(8-cyclopropyl-4-{[(5,6-difluoro-1H-benzimidazol-2-yl)methyl]amino}pyrazolo[1,5-a][1,3,5]triazin-2-yl)(methyl)amino]-2-methylpropan-2-ol], in assay [1], the DC50 worked out at 3.06 nM and the “(IC50 CDK12 high ATP) to (Degradation DC50 CDK12) ratio” value came to 780. For the same molecule, the IC50 on CDK2/CycE is 12100 nM.

As for `Cc1cc2nc(CNc3nc(N(C)CC(C)(C)O)nc4c(Br)cnn34)[nH]c2cc1C` [Example 343, 1-[(8-bromo-4-{[(5,6-dimethyl-1H-benzimidazol-2-yl)methyl]amino}pyrazolo[1,5-a][1,3,5]triazin-2-yl)(methyl)amino]-2-methylpropan-2-ol], in assay [1], the DC50 worked out at 3.56 nM and the “(IC50 CDK12 high ATP) to (Degradation DC50 CDK12) ratio” value is given as 53. Moreover, on CDK2/CycE, the IC50 amounted to 1190 nM.

Regarding `CC[C@H](CO)Nc1nc(NCc2nc3ccccc3[nH]2)n2ncc(Br)c2n1` [Example 368, (2R)-2-[(4-{[(1H-benzimidazol-2-yl)methyl]amino}-8-bromopyrazolo[1,5-a][1,3,5]triazin-2-yl)amino]butan-1-ol], in assay [1], the DC50 came out at 9.39 nM and the “(IC50 CDK12 high ATP) to (Degradation DC50 CDK12) ratio” value was 516. In addition, on CDK2/CycE, the IC50 was 885 nM.

As to `Clc1cc2nc(CNc3nc(N4CC5CCC(C4)N5)nc4c(C5CC5)cnn34)[nH]c2cc1Cl` [Example 324, 8-cyclopropyl-2-(3,8-diazabicyclo[3.2.1]octan-3-yl)-N-[(5,6-dichloro-1H-benzimidazol-2-yl)methyl]pyrazolo[1,5-a][1,3,5]triazin-4-amine], in assay [1], the DC50 came out at 18 nM and the “(IC50 CDK12 high ATP) to (Degradation DC50 CDK12) ratio” value is 48. Besides, on CDK2/CycE, the IC50 is 13800 nM.

With `CN(c1nc(NCc2nc3ccccc3[nH]2)n2ncc(Br)c2n1)[C@H]1C[C@H](O)C1` [Example 365, trans-3-[(4-{[(1H-benzimidazol-2-yl)methyl]amino}-8-bromopyrazolo[1,5-a][1,3,5]triazin-2-yl)(methyl)amino]cyclobutan-1-ol], in assay [1], the DC50 was determined as 23.6 nM and the “(IC50 CDK12 high ATP) to (Degradation DC50 CDK12) ratio” value came to 247. For the same molecule, the IC50 at CDK2/CycE came to 1740 nM.

As for `FC(F)(F)c1ccc2[nH]c(CNc3nc(N4CCOCC4)nc4c(C5CC5)cnn34)nc2c1` [Example 322, 8-cyclopropyl-2-(morpholin-4-yl)-N-{[5-(trifluoromethyl)-1H-benzimidazol-2-yl]methyl}pyrazolo[1,5-a][1,3,5]triazin-4-amine], in assay [1], the DC50 amounted to 4.57 nM and the “(IC50 CDK12 high ATP) to (Degradation DC50 CDK12) ratio” value is given as 266. For the same molecule, on CDK2/CycE, the IC50 was greater than 20000 nM.

For `CN1CCN(c2nc(NCc3nc4cc(Cl)c(Cl)cc4[nH]3)n3ncc(Br)c3n2)CC1` [Example 330, 8-bromo-N-[(5,6-dichloro-1H-benzimidazol-2-yl)methyl]-2-(4-methylpiperazin-1-yl)pyrazolo[1,5-a][1,3,5]triazin-4-amine], in assay [1], the DC50 is 2.89 nM and the “(IC50 CDK12 high ATP) to (Degradation DC50 CDK12) ratio” value stood at 1601. Further, the IC50 at CDK2/CycE amounted to 13800 nM.

As to `Fc1cc2nc(CNc3nc(N4C[C@H]5CC[C@@H](C4)N5)nc4c(C5CC5)cnn34)[nH]c2cc1Cl` [Example 328, N-[(6-chloro-5-fluoro-1H-benzimidazol-2-yl)methyl]-8-cyclopropyl-2-[(1R,5S)-3,8-diazabicyclo[3.2.1]octan-3-yl]pyrazolo[1,5-a][1,3,5]triazin-4-amine], in assay [1], the DC50 stood at 3.95 nM and the “(IC50 CDK12 high ATP) to (Degradation DC50 CDK12) ratio” value is on record as 419. Moreover, at CDK2/CycE, the IC50 is 14500 nM.

As for `Clc1cc2nc(CNc3nc(N4CCOCC4)nc4c(Br)cnn34)[nH]c2cc1Cl` [Example 329, 8-bromo-N-[(5,6-dichloro-1H-benzimidazol-2-yl)methyl]-2-(morpholin-4-yl)pyrazolo[1,5-a][1,3,5]triazin-4-amine], in assay [1], the DC50 stood at 7.38 nM and the “(IC50 CDK12 high ATP) to (Degradation DC50 CDK12) ratio” value worked out at 73. In addition, the IC50 at CDK2/CycE worked out at 9460 nM.

As for `Brc1cnn2c(NCc3nc4ccccc4[nH]3)nc(N3CCN4CCC3CC4)nc12` [Example 349, N-[(1H-benzimidazol-2-yl)methyl]-8-bromo-2-(1,4-diazabicyclo[3.2.2]nonan-4-yl)pyrazolo[1,5-a][1,3,5]triazin-4-amine], in assay [1], the DC50 was determined as 9.89 nM and the “(IC50 CDK12 high ATP) to (Degradation DC50 CDK12) ratio” value is 877. The IC50 at CDK2/CycE amounted to 1820 nM.

Consider `CN1CCN(c2nc(NCc3nc4cc(F)c(Cl)cc4[nH]3)n3ncc(Br)c3n2)CC1` [Example 337, 8-bromo-N-[(6-chloro-5-fluoro-1H-benzimidazol-2-yl)methyl]-2-(4-methylpiperazin-1-yl)pyrazolo[1,5-a][1,3,5]triazin-4-amine], for which, in assay [1], the DC50 came out at 1.85 nM and the “(IC50 CDK12 high ATP) to (Degradation DC50 CDK12) ratio” value came to 4722. The IC50 on CDK2/CycE was 17800 nM.

Regarding `Fc1cccc2[nH]c(CNc3nc(N4CC5CCC(C4)N5)nc4c(Cl)cnn34)nc12` [Example 363, 8-chloro-2-(3,8-diazabicyclo[3.2.1]octan-3-yl)-N-[(4-fluoro-1H-benzimidazol-2-yl)methyl]pyrazolo[1,5-a][1,3,5]triazin-4-amine], in assay [1], the DC50 is 11.9 nM and the “(IC50 CDK12 high ATP) to (Degradation DC50 CDK12) ratio” value came to 279. Further, at CDK2/CycE, the IC50 worked out at 8610 nM.

Regarding `CN(CC(C)(C)O)c1nc(NCc2nc3cc(F)c(F)cc3[nH]2)n2ncc(Br)c2n1` [Example 347], in assay [1], the DC50 is 2.01 nM and the “(IC50 CDK12 high ATP) to (Degradation DC50 CDK12) ratio” value was 1086. For the same molecule, at CDK2/CycE, the IC50 worked out at 9080 nM.

Take `Fc1cccc(-c2nnc(CNc3nc(N4CCOCC4)nc4c(C(F)(F)F)cnn34)[nH]2)c1` [Example 385, N-{[5-(3-fluorophenyl)-4H-1,2,4-triazol-3-yl]methyl}-2-(morpholin-4-yl)-8-(trifluoromethyl)pyrazolo[1,5-a][1,3,5]triazin-4-amine]: in assay [1], the DC50 is 9.13 nM and the “(IC50 CDK12 high ATP) to (Degradation DC50 CDK12) ratio” value is listed as 31. Further, the IC50 on CDK2/CycE stood at 1810 nM.

With `FC(F)(F)c1cnn2c(NCc3nc4cc(Cl)c(Cl)cc4[nH]3)nc(N3CCOCC3)nc12` [Example 332, N-[(5,6-dichloro-1H-benzimidazol-2-yl)methyl]-2-(morpholin-4-yl)-8-(trifluoromethyl)pyrazolo[1,5-a][1,3,5]triazin-4-amine], in assay [1], the DC50 stood at 10.7 nM and the “(IC50 CDK12 high ATP) to (Degradation DC50 CDK12) ratio” value stood at 18. Further, the IC50 at CDK2/CycE is greater than 20000 nM.

As for `CN1CCN(c2nc(NCc3nc4cc(C(F)(F)F)ccc4[nH]3)n3ncc(Br)c3n2)CC1` [Example 344, 8-bromo-2-(4-methylpiperazin-1-yl)-N-{[5-(trifluoromethyl)-1H-benzimidazol-2-yl]methyl}pyrazolo[1,5-a][1,3,5]triazin-4-amine], in assay [1], the DC50 turned out to be 6.69 nM and the “(IC50 CDK12 high ATP) to (Degradation DC50 CDK12) ratio” value amounted to 1251. The IC50 at CDK2/CycE came to 12400 nM.

(Values after patent US20230117034A1, “PYRAZOLOTRIAZINES” (Bayer Aktiengesellschaft, priority 2019, published 2023).)
